Experimental data: patent publication US9200319B2, “Nucleotides and nucleosides and methods for their use in DNA sequencing” (Lasergen, Inc., priority 2008, dated 2015)
Values joined by “and” are separate entries in the source; they are usually repeats but may differ in a detail not shown here. Identical values can stand only once.

Columns and labels:
[1] = biological target: T1, THERMINATOR™ DNA polymerase (Thermococcus sp., UniProt Q56366, A485L/D141A/E143A); experiment: biochemical; design: species or system Thermococcus species 9° N-7
T1 construct: purchased New England Biolabs
T1 sequence (Q56366 whole entry D141A/E143A/A485L): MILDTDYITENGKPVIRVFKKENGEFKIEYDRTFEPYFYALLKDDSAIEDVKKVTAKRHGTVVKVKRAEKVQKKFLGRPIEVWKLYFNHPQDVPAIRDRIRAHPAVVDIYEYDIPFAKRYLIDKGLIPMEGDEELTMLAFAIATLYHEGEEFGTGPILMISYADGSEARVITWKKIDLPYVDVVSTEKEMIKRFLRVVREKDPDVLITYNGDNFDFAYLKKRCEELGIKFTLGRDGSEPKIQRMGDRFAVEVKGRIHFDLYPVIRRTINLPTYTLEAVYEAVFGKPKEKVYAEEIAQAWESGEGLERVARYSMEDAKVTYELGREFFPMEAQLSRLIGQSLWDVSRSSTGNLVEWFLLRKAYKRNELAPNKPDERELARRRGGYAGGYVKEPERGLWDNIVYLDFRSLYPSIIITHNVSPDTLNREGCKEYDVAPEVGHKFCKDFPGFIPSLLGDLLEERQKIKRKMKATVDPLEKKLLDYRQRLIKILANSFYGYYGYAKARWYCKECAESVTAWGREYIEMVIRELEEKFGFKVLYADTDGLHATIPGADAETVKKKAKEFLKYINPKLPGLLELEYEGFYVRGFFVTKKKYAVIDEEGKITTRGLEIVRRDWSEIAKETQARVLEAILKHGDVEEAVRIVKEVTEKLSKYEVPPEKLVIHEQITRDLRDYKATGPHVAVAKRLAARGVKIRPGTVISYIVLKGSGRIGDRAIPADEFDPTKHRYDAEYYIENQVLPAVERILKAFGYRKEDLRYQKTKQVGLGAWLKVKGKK
Method: (§1) Natural and modified nucleotides were tested for incorporation efficiency using the “polymerase end point assay” (Wu et al., 2007, which is incorporated herein by reference). This assay examines incorporation efficiency on matched and mismatched template bases. Incorporation efficiency is measured by determining the concentration at which the compound incorporates on half the primer-template complexes (IC50). Titrations of increasing compound concentration were performed to generate curves from which the IC50 can be determined.
(§2) The sequence of the template DNA is selected depending on which compound will be tested. For example, the first interrogation base after the primer in the template sequence is the complement base of the compound when measuring incorporation efficiency, and one of three mismatched bases when measuring mismatch discrimination properties.
(§3) To the annealed reaction, a DNA polymerase (e.g., THERMINATOR™ DNA polymerase, 0.25 units per reaction, New England Biolabs), 1× Thermopol Buffer, and a known concentration of either natural or modified nucleotide are added to each 10 μL reaction and incubated at 75° C. for 10 minutes, cooled on ice, and quenched with 10 μL of stop solution (98% formamide: 10 mM Na2EDTA, pH=8.0, 25 mg/ml Blue Dextran). Stopped reactions are heated to 75° C. for 30 seconds to denature the DNA, and then placed on ice. The extension products are analyzed on a 10% Long Ranger (Lonza) polyacrylamide gel using an ABI model 377 DNA sequencer. Additional details are provided in Example 1, below.
Polymerase Assays. Natural and modified nucleotides were tested for incorporation efficiency using the “polymerase end point assay” (Wu et al., 2007, which is incorporated herein by reference). This assay examines incorporation efficiency on matched and mismatched template bases. Incorporation efficiency is measured by determining the concentration at which the compound incorporates on half the primer-template complexes (IC50). Titrations of increasing compound concentration were performed to generate curves from which the IC50 can be determined.
The assay is performed by first annealing 5 nM of BODIPY-FL labeled primer with 40 nM template DNA in 1× Thermopol Buffer (20 mM Tris-HCl, pH 8.8; 10 mM (NH4)2SO4; 10 mM KCl; 2 mM MgSO4; 0.1% Triton X-100, New England BioLabs).
as §2, with “The temperature cycle to complete primer annealing is 80° C. for 30 seconds, 57° C. for 30 seconds, then cooling to 4° C. The” for “The”
as §3, with “sequencer.” for “sequencer. Additional details are provided in Example 1, below.”

[2] = biological target: T1, THERMINATOR™ DNA polymerase; experiment: polymerase end point assay, mismatch discrimination (mismatched template bases); format: biochemical, Thermococcus species 9° N-7
Method: as §1, §2
The mismatch/match ratios represent the ability of the polymerase to distinguish between correctly incorporating against a matched template base and a mismatch one. Discrimination is considered sufficient when the mismatch/match ratio is greater than or equal to 100 (two orders of magnitude). […] Both natural dGTP and C^7-(2-nitrobenzyloxy)methyl-2′-dGTP (5p107) show mismatch/match ratios ranging from 10 to 360, and 10 to 250, respectively, two of which are below the 100-fold threshold. […] A similar trend is observed for the C^7-hydroxymethyl-dATP analogs. For the compounds shown in Table 1, substitution at the α-carbon of the 2-nitrobenzyl group increases mismatch discrimination in a stereo-specific manner.
as §2, with “The temperature cycle to complete primer annealing is 80° C. for 30 seconds, 57° C. for 30 seconds, then cooling to 4° C. The” for “The”
as §3, with “sequencer.” for “sequencer. Additional details are provided in Example 1, below.”

[3] = UV-cleavage of incorporated nucleotide analogs with 365 nm light; details: 365 nm UV light, 50 mM NaN3; time at which half the incorporated analog is cleaved
Method: Cleavage of the terminating substituted 2-nitrobenzyl group when analogs are incorporated into the primer strand with 365 nm UV light allows for the next cycle of incorporation to resume. Without being bound by theory, at least two factors were found typically influence UV-cleavage rates of incorporated nucleotide analogs: a) stereo-chemistry of the α-carbon substitution of the 2-nitrobenzyl group, and b) substitution on the benzyl ring. Incorporation on a matched template is performed as described above using 1 μM concentration to extend the primer strand. Ten identical tubes are used for each incorporation experiment, after which NaN3 is added to a final concentration of 50 mM. Extended primer reactions are exposed to 365 nm light for various time points using the UV deprotector device described by Wu et al. (2007, which is incorporated herein by reference) and analyzed using an AB model 377 DNA sequencer. The quantitative data are plotted linearly as product formation versus exposure time, and the time point at which half the nucleotide analog is cleaved is calculated, as a DT50 value. […] For example, based on these examples, the ds2 analogs show faster cleavage rates (e.g., lower DT50 values) compared with ds1 analogs. Furthermore, substitution of a methoxy group at the 4 position on the benzyl ring further increases the rate of UV-cleavage, albeit for ds2 analogs only (e.g., the DT50 value for 5p098-ds2 is […] versus that of 1.9 sec for 6p087-ds2). Based on the examples summarized in Table 3, substitution at the α-carbon of the 2-nitrobenzyl ring increases UV-cleavage in a stereospecific manner.

[4] = biological target: T1, THERMINATOR™ DNA polymerase; experiment: termination assay, weighted sum analysis on homopolymer repeat template; format: biochemical, Thermococcus species 9° N-7; details: 1.0 = complete termination after a single incorporation
Method: A weighted sum of 1.0 represents complete termination after a single incorporation, while a value greater than 1.0 indicates incorporation beyond the +1 position (e.g. nucleotide read through). […] The assay is performed as described above for the polymerase end-point assay, except that the template used is a homopolymer repeat, thereby allowing for multiple incorporations of a given nucleotide compound.

[5] = IC50 for incorporation, concentration at which the compound incorporates on half the primer-template complexes, complement template base

Row | Structure (SMILES) | IC50 [1, 5] [nM] | Mismatch/match ratio (10^2) ([2]; template base "A") | Mismatch/match ratio (10^2) ([2]; template base "G") | Mismatch/match ratio (10^2) ([2]; template base "T") | DT50 [3] | further results
1 | CC(C)C(OCc1cn([C@H]2C[C@H](O)[C@@H](COP(=O)(O)OP(=O)(O)OP(=O)(O)O)O2)c2nc(N)[nH]c(=O)c12)c1ccccc1[N+](=O)[O-] (single isomer, unassigned) [5p143-ds1, 7-[1-(2-nitrophenyl)-2-methyl-propyloxy]methyl-7-deaza-2′-deoxyguanosine-5′-triphosphate] | 1.2 ± 0.2 | >830 10^2 | >21 10^2 | 5 10^2 |  | 
2 | CC(C)C(OCc1cn([C@H]2C[C@H](O)[C@@H](COP(=O)(O)OP(=O)(O)OP(=O)(O)O)O2)c2nc(N)[nH]c(=O)c12)c1ccccc1[N+](=O)[O-] (single isomer, unassigned) [5p143-ds2, 7-[1-(2-nitrophenyl)-2-methyl-propyloxy]methyl-7-deaza-2′-deoxyguanosine-5′-triphosphate] | 1.3 ± 0.3 | >770 10^2 | >7.7 10^2 | 2.5 10^2 |  | 
3 | COc1ccc(C(OCc2cn([C@H]3C[C@H](O)[C@@H](COP(=O)(O)OP(=O)(O)OP(=O)(O)O)O3)c3ncnc(N)c23)C(C)C)c([N+](=O)[O-])c1 (single isomer, unassigned) [6p087-ds1, 7-[1-(4-methoxy-2-nitrophenyl)-2-methyl-propyloxy]methyl-7-deaza-2′-deoxyadenosine-5′-triphosphate] | 15 ± 1 |  |  |  | 8.8 ± 0.6 s | 
4 | Nc1nc2c(c(COCc3ccccc3[N+](=O)[O-])cn2[C@H]2C[C@H](O)[C@@H](COP(=O)(O)OP(=O)(O)OP(=O)(O)O)O2)c(=O)[nH]1 [5p107, 7-(2-nitrobenzyloxy)methyl-7-deaza-2′-deoxyguanosine-5′-triphosphate] | 1.5 ± 0.3 | 2.5 10^2 | 0.4 10^2 | 0.1 10^2 |  | 
5 | COc1ccc(C(OCc2cn([C@H]3C[C@H](O)[C@@H](COP(=O)(O)OP(=O)(O)OP(=O)(O)O)O3)c3ncnc(N)c23)C(C)C)c([N+](=O)[O-])c1 (single isomer, unassigned) [6p087-ds2, 7-[1-(4-methoxy-2-nitrophenyl)-2-methyl-propyloxy]methyl-7-deaza-2′-deoxyadenosine-5′-triphosphate] | 18 ± 3 |  |  |  | 1.9 s and 1.9 ± 0.1 s | 
6 | CC(C)C(OCc1cn([C@H]2C[C@H](O)[C@@H](COP(=O)(O)OP(=O)(O)OP(=O)(O)O)O2)c2ncnc(N)c12)c1ccccc1[N+](=O)[O-] (single isomer, unassigned) [5p098-ds2, 7-[1-(2-nitrophenyl)-2-methyl-propyloxy]methyl-7-deaza-2′-deoxyadenosine-5′-triphosphate] | 5.7 ± 1.1 |  |  |  | 3.3 s and 3.3 ± 0.2 s | 
7 | CC(C)C(OCc1cn([C@H]2C[C@H](O)[C@@H](COP(=O)(O)OP(=O)(O)OP(=O)(O)O)O2)c2ncnc(N)c12)c1c([N+](=O)[O-])cccc1[N+](=O)[O-] (single isomer, unassigned) [6p057-ds1, 7-[1-(2,6-dinitrophenyl)-2-methyl-propyloxy]methyl-7-deaza-2′-deoxyadenosine-5′-triphosphate] | 5.2 ± 0.2 |  |  |  | 7.3 ± 1.2 s | 
8 | Nc1nc2c(ncn2[C@H]2C[C@H](O)[C@@H](COP(=O)(O)OP(=O)(O)OP(=O)(O)O)O2)c(=O)[nH]1 [dGTP, reference compound] |  | 3.6 10^2 | 0.2 10^2 | 0.1 10^2 |  | 
9 | CC(C)C(OCc1cn([C@H]2C[C@H](O)[C@@H](COP(=O)(O)OP(=O)(O)OP(=O)(O)O)O2)c2ncnc(N)c12)c1c([N+](=O)[O-])cccc1[N+](=O)[O-] (single isomer, unassigned) [6p057-ds2, 7-[1-(2,6-dinitrophenyl)-2-methyl-propyloxy]methyl-7-deaza-2′-deoxyadenosine-5′-triphosphate] | 5.8 ± 1.1 |  |  |  | 4.8 ± 0.5 s | 
10 | O=c1[nH]c(=O)n([C@H]2C[C@H](O)[C@@H](COP(=O)(O)OP(=O)(O)OP(=O)(O)O)O2)cc1COCc1ccccc1 [5p145, 5-(benzyloxy)methyl-2′-deoxyuridine-5′-triphosphate] | 1.4 |  |  |  |  | IC50 ([1]; Adj IC50 Conc (nM), adjusted IC50 used to set the concentrations of the termination assay): 1.4 nM; Average Weighted Sum ± SD ([4]; 1x IC50): 0.43 ± 0.1; Average Weighted Sum ± SD ([4]; 5x IC50): 1.3 ± 0.3; Average Weighted Sum ± SD ([4]; 25x IC50): 2.9 and 2.9 ± 0.4
11 | CC(C)C(OCc1cn([C@H]2C[C@H](O)[C@@H](COP(=O)(O)OP(=O)(O)OP(=O)(O)O)O2)c2ncnc(N)c12)c1ccccc1[N+](=O)[O-] (single isomer, unassigned) [5p098-ds1, 7-[1-(2-nitrophenyl)-2-methyl-propyloxy]methyl-7-deaza-2′-deoxyadenosine-5′-triphosphate] | 6.7 ± 0.8 |  |  |  | 7.5 ± 0.8 s | 
